Consider one molecule from patent US9463188B2, “Osteopontin production inhibitor containing dictyopyrone derivative or dihydrodictyopyrone derivative as active ingredient” (TOHOKU UNIVERSITY, priority 2013, dated 2016).

pEC50: −log10 of the molar value.

The test system of assay [1] is human OPN promoter (pOPN1-luc) in A549/OPNluc cells. Briefly: Luciferase assay: luciferase expression under control of OPN promoter. It is filed as cell-based. The source says:
A reporter vector pOPN1-luc obtained by inserting a human OPN promoter sequence (−765 to 23) into the multiple cloning site of pGL-3 basic vector (Promega) expresses luciferase when transfected into animal cells. This pOPN1-luc was transfected into a human non-small cell lung cancer-derived cell line A549 together with pPUR (Clontech) that expresses a puromycin resistance gene (puromycin-N-acetyl-transferase gene), and cells that could grow in a puromycin-supplemented medium and expressed luciferase were selected. The selected cells were named A549/OPNluc cells and used for observation of luciferase expression inhibitory effect under control of OPN promoter, as described later.
A test compound was added to a culture liquid containing A549/OPNluc cells to observe its influence on the amount of luciferase expressed in the cells. Here, it can be considered that when the test compound has cytotoxity or cell growth-suppressing effect, the total expression level of luciferase is reduced due to a reduction in the number of living cells that depends on the concentration of the test compound, and therefore the luciferase expression inhibitory effect of the test compound under control of OPN promoter cannot be properly evaluated. For this reason, WST assay for quantification of cell proliferation ability or cell viability by colorimetric measurement was first performed to determine IC50 (concentration for 50% inhibition of cell growth) of the test compound for cell growth. Then, luciferase activity measurement was performed to determine EC50 (concentration for 50% inhibition of luciferase expression) of the test compound for luciferase expression under control of OPN promoter.
The same steps as in the above-described WST assay were performed in which only DMSO (control) or the diluted test compound (sample) solution was added in an amount of 0.5 μL to each well containing the cell suspension to achieve 200-fold dilution, and the solution in each well was mixed with a vortex mixer, and the 96-well plate was incubated in a CO2 incubator (at 37° C. and 5% CO2) for 48±4 hours.
A luciferase reagent was prepared by dissolving Luciferase Assay Substrate (hereinafter, referred to as “LAS”) supplied in Luciferase Assay Systems (Promega: Cat# E1500) with Luciferase Assay Buffer (LAB). 5× Cell Culture Lysis Reagent (hereinafter, referred to as “CCLR”) was diluted with water 5-fold to prepare 1×CCLR.
After the incubation for 48±4 hours, the medium in each well was completely removed, and 50 μL of 1×CCLR was dispensed into each well. The 96-well plate was allowed to stand at room temperature for 30 minutes, and then 1×CCLR in each well was used as an assay sample. The luciferase reagent of 100 μL was placed in a tube for chemiluminescence measurement, and 20 μL of the assay sample was added to the tube and mixed with the luciferase reagent to measure chemiluminescence (Relative Luminescence Intensity: RLU) using Tuner Design Luminometer 20/20 (Promega).
The RLU values of the control wells and the RLU values of the sample wells at each concentration were input into an Excel file, and the percentages of RLU values of the sample wells at each concentration with respect to the average of RLU values of the control wells were determined. From these values, a fitted curve was determined by the method of least squares to calculate EC50.

Assay [2] has as its system human non-small cell lung cancer-derived cell line A549. Put plainly: Matrix-Invasion assay (Matrigel). Format: cell-based. As for the experimental part: As a second test for determining whether or not the physiological function of cells induced by OPN production is suppressed by a test compound, Matrix-Invasion assay was performed. In this assay, cups (inserts) whose bottom was covered with a membrane coated with collagen or laminin (Matrigel, BD Bioscience) as an extracellular matrix component and having φ8 μm pores and a 24-well plate for inserting the inserts were prepared. Cells suspended in a serum-free medium were placed in the inside insert, and a medium containing a substance inducing metastasis and invasion of cells (here, fetal calf serum) was injected into each well of the outside 24-well plate to determine the number of cells passing through the Matrigel-coated membrane of the insert and coming into the outside well.
Specifically, a fluorescent dye was introduced into A549 cells invading outside the membrane, and then the cells were separated from the membrane to measure their fluorescence intensity. At the same time, a fluorescent dye was introduced also into a known number of cells for preparing a calibration curve, and a calibration curve was prepared from their fluorescence intensity. Then, the number of invading cells of a test sample containing an unknown number of cells was determined from the fitted curve.
Cancer cells produce OPN by stimulation of fetal calf serum added to the outside medium. However, when OPN is present in the culture liquid, the cells produce Matrix Metalloproteinase (MMP) that is a collagen-degrading enzyme so that Matrigel is dissolved, and in addition, the cells transfer to the outside well due to their improved migration capacity. […]
Cells of a human non-small cell lung cancer-derived cell line A549 were suspended in DMEM medium containing 10% FCS and 1% P/S at 1.8×10^5 cells/mL to obtain a cell suspension. […] This day was counted as Day 0 of operation. […]

Turning to `CCCCCCCCCCCC(=O)[C@H]1C(=O)O[C@@H](C)C[C@@H]1C` [Chemical formula 3], the “EC50 value relative to respective IC50 value” in assay [1] (EC50 luciferase assay vs IC50 WST assay) was “½”. In addition, the pEC50 in assay [1] (Homo sapiens, 48±4 hours, read-out: EC50 (concentration for 50% inhibition of luciferase expression under control of OPN promoter)) is 4.80. In assay [2] (25 μmol/L, 48±4 hours), the “total number of invading cells vs control group” value was “no significant difference”. Besides, the “total number of invading cells relative to control group” value in assay [2] (50 μmol/L, 48±4 hours) is “about half”. The “suppression of matrix invasion vs control group” value in assay [2] (A549 cells, 50 μmol/L, significance level less than 1%) is recorded as “significantly suppressed”.
